Assay results published in US10865203B2, “Ligands selective to alpha 6 subunit-containing GABAA receptors and their methods of use” (UWM Research Foundation, Inc., priority 2015, dated 2020).
Entries after “also recorded” stand apart in the source; their conditions may differ.

Tests used:
[1] = system: GABA-A receptors, including α6 GABA-ARs; experiment: Modulation of GABA-A receptors by constituent of Cl leaves
[2] = system: αxβx, αxβ3γ2 and αβδ receptors; experiment: Electrophysiology in Xenopus oocytes, functional screening over all tested receptors; type: cell-based, rat
Method: Mature female Xenopus laevis (Nasco, Fort Atkinson, Wis., USA) were anaesthetized in a bath of ice-cold 0.17% Tricain (Ethyl-m-aminobenzoat, Sigma-Aldrich, St. Louis, Mo., USA) before decapitation and transfer of the frog's ovary to ND96 medium (96 mM NaCl, 2 mM KCl, 1 mM MgCl2, 5 mM HEPES; pH 7.5). Following incubation in 1 mg/mL collagenase (Sigma-Aldrich, St. Louis, Mo., USA) for 30 min, stage 5 to 6 oocytes were singled out of the ovary and defolliculated using a platinum wire loop. Oocytes were stored and incubated at 18° C. in NDE medium (96 mM NaCl, 2 mM KCl, 1 mM MgCl2, 5 mM HEPES, 1.8 mM CaCl2; pH 7.5) that was supplemented with 100 U per mL-1 penicillin, 100 μg per mL-1 streptomycin and 2.5 mM pyruvate. Oocytes were injected with an aqueous solution of mRNA. A total of 2.5 ng of mRNA per oocyte was injected. […] Maximum currents measured in mRNA injected oocytes were in the microampere range for all receptor subtypes. […] Data were digitized using a Digidata 1322A or 1550 data acquisition system (Axon Instruments, Union City, Calif., USA), recorded using Clampex 10.5 software (Molecular Devices, Sunnyvale, Calif., USA), and analyzed using Clampfit 10.5 and GraphPad Prism 6.0 (La Jolla, Calif., USA) software. […]
For selected test compounds full dose response curves were recorded in α1-6β3γ2 receptors. […]

[3] = Microsomal stability assay, mouse liver microsomes; type: in vitro ADME; conditions: 10 μM test compound, 0.5 mg/mL protein, 37° C.
Method: (§1) 4 μL of 1 mM test compound at a final concentration of 10 μM dissolved in DMSO/ACN/Methanol/Ethanol was preincubated at 37° C. for 5 minutes on a digital heating shaking dry bath (Fischer scientific, Pittsburgh, Pa.) in a mixture containing 282 μL of water, 80 μL of phosphate buffer (0.5 M, pH 7.4), 20 μL of NADPH Regenerating System Solution A (BD Bioscience, San Jose, Calif.) and 4 μL of NADPH Regenerating System Solution B (BD Bioscience, San Jose, Calif.) in a total volume of 391.2 μL. Following preincubation, the reaction was initiated by addition of 8.8 μL of either human liver microsomes (BD Gentest, San Jose, Calif.), mouse liver microsomes (Life technologies, Rockford, Ill.), at a protein concentration of 0.5 mg/mL. Aliquots of 50 μL were taken at time intervals of 0 (without microsomes), 10, 20, 30, 40, 50 and 60 minutes. Each aliquot was added to 100 μL of cold acetonitrile solution containing 1 μM/2 μM internal standard. This was followed by sonication for 10 seconds and centrifugation at 10,000 rpm for 5 minutes. 100 μL of the supernatant was transferred into Spin-X HPLC filter tubes (Corning Incorporated, NY) and centrifuged at 13,000 rpm for 5 minutes. […] The ratio of the peak areas of the internal standard and test compound was calculated for every time point and the natural log of the ratio were plotted against time to determine the linear slope (k). […] All experiments were repeated three times in duplicates.

[4] = Microsomal stability assay, human liver microsomes; type: in vitro ADME; conditions: 10 μM test compound, 0.5 mg/mL protein, 37° C.
Method: as §1

Compound	modulation of GABA-A receptors [1]	activity in all tested receptors [2]	% left after 1 hr. (MLM) [3]	Half-life (min) (MLM) [3]	% left after 1 hr. (HLM) [4]
COc1c(O)cc2oc(-c3ccc(O)cc3)cc(=O)c2c1O [hispidulin]	positive allosteric modulator	–	–	–	–
[2H]C([2H])([2H])Oc1ccccc1-n1nc2c3cc(Cl)ccc3[nH]cc-2c1=O [DK-I-87-1, 8-Chloro-2-(2-methoxy-d3-phenyl)-2,5-dihydro-3H-pyrazolo[4,3-c]quinolin-3-one]	–	inactive in all receptors that were tested so far; also recorded: essentially inactive in all tested receptors	94.91 ± 0.10%	993 ± 189 min	94.7 ± 0.07%
COc1ccccc1-n1nc2c3cc(Cl)ccc3[nH]cc-2c1=O [LAU 165, 8-Chloro-2-(2-methoxyphenyl)-2H-pyrazolo[4,3-c]quinolin-3(5H)-one]	–	inactive in all receptors that were tested so far; also recorded: essentially inactive in all tested receptors	–	–	–
